From patent US9695155B2, “Herbicidal substituted pyrimidinyloxy benzene compounds” (E. I. DU PONT DE NEMOURS AND COMPANY, priority 2013, dated 2017)

Tests used:
large (Lg) crabgrass = assay: Test A preemergence; type: in vivo, Digitaria sanguinalis; conditions: for Crabgrass, Large plant response rating (0 to 100 scale): 125 g ai/ha
Procedure, shortened: (§1)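 Scoring: eye-based comparison with untreated controls, 0 for no effect through 100 for complete control, at about day 10. Treatments: directed soil spray preemergence; foliar spray postemergence on 2–10 cm plants at the one- to two-leaf stage. Medium: loam soil with sand.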

barnyardgrass = assay: Test A postemergence; type: in vivo, Echinochloa crus-galli; conditions: 0 to 100 scale where 0 is no effect and 100 is complete control
Procedure, shortened: as §1

wheat = assay: Test A postemergence; type: in vivo, Triticum aestivum; conditions: 0 to 100 scale where 0 is no effect and 100 is complete control
Procedure, shortened: as §1

Heteranthera limosa = assay: Test B flooded paddy test; type: in vivo; conditions: Flood, 250 g ai/ha, 0 to 100 scale where 0 is no effect and 100 is complete control
Procedure, shortened: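 Seedlings are raised to two leaves, flooded to a depth of 3 cm and dosed by adding the compound to the floodwater. Water level is kept constant, and plants are scored visually versus controls 13–15 days later (0 = no effect, 100 = complete control).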

blackgrass = assay: Test C preemergence; type: in vivo, Alopecurus myosuroides
Procedure, shortened: (§2)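 Seeds are planted in blended loam soil and sand and treated preemergence, while seedlings in a peat moss/vermiculite medium receive postemergence sprays at 2 to 18 cm height. All plants stay in the greenhouse for 13 to 15 days before visual comparison with controls on a 0–100 scale.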

Italian ryegrass = assay: Test C preemergence; type: in vivo, Lolium multiflorum
Procedure, shortened: as §2

wheat, winter = assay: Test C preemergence; type: in vivo, Triticum aestivum
Procedure, shortened: as §2

galium = assay: Test C preemergence; type: in vivo, Galium aparine
Procedure, shortened: as §2

morningglory [1] = assay: Test C preemergence; type: in vivo, Ipomoea coccinea
Procedure, shortened: as §2

waterhemp = assay: Test C preemergence; type: in vivo, Amaranthus rudis
Procedure, shortened: as §2

morningglory [2] = assay: Test C postemergence; type: in vivo, Ipomoea coccinea; conditions: for Morningglory plant response rating: 31 g ai/ha
Procedure, shortened: as §2

[3] = postemergence, visual rating, scale 0 to 100 (0 no effect, 100 complete control), 13 to 15 days
[4] = 500 g ai/ha, 0 to 100 scale where 0 is no effect and 100 is complete control
[5] = 125 g ai/ha, preemergence, scale 0 (no effect) to 100 (complete control)
[6] = 250 g ai/ha, preemergence, scale 0 (no effect) to 100 (complete control)
[7] = Preemergence, 62 g ai/ha, scale 0 to 100, 0 no effect, 100 complete control
[8] = 125 g ai/ha, postemergence, visual rating, scale 0 to 100 (0 no effect, 100 complete control)
[9] = Postemergence, 62 g ai/ha, scale 0 to 100 (0 no effect, 100 complete control), 13 to 15 days
[10] = 16 g ai/ha, preemergence, scale 0 to 100 (0 no effect, 100 complete control)

Compound: FC(F)c1cccc(Oc2ncc(Cl)cn2)c1-n1cc(Br)cn1 [Compound 194, 2-[2-(4-bromo-1H-pyrazol-1-yl)-3-(difluoromethyl)phenoxy]-5-chloropyrimidine]
- Crabgrass, Large plant response rating (0 to 100 scale) (large (Lg) crabgrass): 100
- pest or weed control at 500 g/ha (large (Lg) crabgrass; Digitaria sanguinalis, pre-emergence, 240 h, 500 g ai/ha, 0 to 100 scale where 0 is no effect and 100 is complete control, read-out: Crabgrass, Large plant response rating): 100%
- pest or weed control at 125 g/ha (barnyardgrass; Echinochloa crus-galli, post-emergence, 240 h, 125 g ai/ha, read-out: Barnyardgrass plant response rating): 80%
- pest or weed control at 500 g/ha (barnyardgrass; Echinochloa crus-galli, post-emergence, 240 h, 500 g ai/ha, read-out: Plant response rating, Barnyardgrass): 90%
- plant injury at 125 g/ha (wheat; Triticum aestivum, post-emergence, 240 h, 125 g ai/ha, read-out: Wheat plant response rating): 30%
- plant injury at 500 g/ha (wheat; Triticum aestivum, post-emergence, 240 h, 500 g ai/ha, read-out: Plant response rating, Wheat): 60%
- pest or weed control at 250 g/ha (Heteranthera limosa; Heteranthera limosa, read-out: Plant response rating, Ducksalad): 98%
- pest or weed control at 125 g/ha (blackgrass; Alopecurus myosuroides, pre-emergence, 125 g ai/ha, preemergence, scale 0 (no effect) to 100 (complete control), read-out: Blackgrass plant response rating): 90%
- pest or weed control at 250 g/ha (blackgrass; Alopecurus myosuroides, pre-emergence, 250 g ai/ha, preemergence, scale 0 (no effect) to 100 (complete control), read-out: Blackgrass plant response rating): 90%
- pest or weed control at 62 g/ha (blackgrass; Alopecurus myosuroides, pre-emergence, Preemergence, 62 g ai/ha, scale 0 to 100, 0 no effect, 100 complete control, read-out: Plant response rating, Blackgrass): 50%
- pest or weed control at 125 g/ha (Italian ryegrass; Lolium multiflorum, pre-emergence, 125 g ai/ha, preemergence, scale 0 (no effect) to 100 (complete control), read-out: Ryegrass, Italian plant response rating): 70%
- pest or weed control at 250 g/ha (Italian ryegrass; Lolium multiflorum, pre-emergence, 250 g ai/ha, preemergence, scale 0 (no effect) to 100 (complete control), read-out: Ryegrass, Italian plant response rating): 90%
- pest or weed control at 62 g/ha (Italian ryegrass; Lolium multiflorum, pre-emergence, Preemergence, 62 g ai/ha, scale 0 to 100, 0 no effect, 100 complete control, read-out: Plant response rating, Ryegrass, Italian): 20%
- plant injury at 125 g/ha (wheat, winter; Triticum aestivum, pre-emergence, 125 g ai/ha, preemergence, scale 0 (no effect) to 100 (complete control), read-out: Wheat plant response rating): 0%
- plant injury at 250 g/ha (wheat, winter; Triticum aestivum, pre-emergence, 250 g ai/ha, preemergence, scale 0 (no effect) to 100 (complete control), read-out: Wheat plant response rating): 35%
- plant injury at 62 g/ha (wheat, winter; Triticum aestivum, pre-emergence, Preemergence, 62 g ai/ha, scale 0 to 100, 0 no effect, 100 complete control, read-out: Plant response rating, Wheat): 0%
- pest or weed control at 125 g/ha (galium; Galium, pre-emergence, 125 g ai/ha, preemergence, scale 0 (no effect) to 100 (complete control), read-out: Galium plant response rating): 90%
- pest or weed control at 250 g/ha (galium; Galium, pre-emergence, 250 g ai/ha, preemergence, scale 0 (no effect) to 100 (complete control), read-out: Galium plant response rating): 100%
- pest or weed control at 62 g/ha (galium; Galium, pre-emergence, Preemergence, 62 g ai/ha, scale 0 to 100, 0 no effect, 100 complete control, read-out: Plant response rating, Galium): 90%
- pest or weed control at 125 g/ha (morningglory [1]; Ipomoea, pre-emergence, 125 g ai/ha, preemergence, scale 0 (no effect) to 100 (complete control), read-out: Morningglory plant response rating): 95%
- pest or weed control at 250 g/ha (morningglory [1]; Ipomoea, pre-emergence, 250 g ai/ha, preemergence, scale 0 (no effect) to 100 (complete control), read-out: Morningglory plant response rating): 98%
- pest or weed control at 62 g/ha (morningglory [1]; Ipomoea, pre-emergence, Preemergence, 62 g ai/ha, scale 0 to 100, 0 no effect, 100 complete control, read-out: Plant response rating, Morningglory): 0%
- pest or weed control at 125 g/ha (waterhemp; Amaranthus tuberculatus, pre-emergence, 125 g ai/ha, preemergence, scale 0 (no effect) to 100 (complete control), read-out: Waterhemp plant response rating): 100%
- pest or weed control at 250 g/ha (waterhemp; Amaranthus tuberculatus, pre-emergence, 250 g ai/ha, preemergence, scale 0 (no effect) to 100 (complete control), read-out: Waterhemp plant response rating): 100%
- pest or weed control at 62 g/ha (waterhemp; Amaranthus tuberculatus, pre-emergence, Preemergence, 62 g ai/ha, scale 0 to 100, 0 no effect, 100 complete control, read-out: Plant response rating, Waterhemp): 100%
- Morningglory plant response rating (morningglory [2]; [3]): 50
- pest or weed control at 125 g/ha (morningglory [2]; Ipomoea, post-emergence, 125 g ai/ha, postemergence, visual rating, scale 0 to 100 (0 no effect, 100 complete control), read-out: Plant response rating, Morningglory): 80%
- pest or weed control at 250 g/ha (morningglory [2]; Ipomoea, post-emergence, 250 g ai/ha, postemergence, read-out: Plant response rating (0 to 100), Morningglory): 95%
- pest or weed control at 62 g/ha (morningglory [2]; Ipomoea, post-emergence, Postemergence, 62 g ai/ha, scale 0 to 100 (0 no effect, 100 complete control), 13 to 15 days, read-out: Plant response rating, Morningglory): 80%

Compound: N#Cc1cccc(Oc2ncc(Cl)cn2)c1-n1cc(I)cn1 [Compound 204]
- Crabgrass, Large plant response rating (0 to 100 scale) (large (Lg) crabgrass): 100
- Crabgrass, Large plant response rating (large (Lg) crabgrass; [4]): 100
- Barnyardgrass plant response rating (barnyardgrass; 125 g ai/ha): 80
- Plant response rating, Barnyardgrass (barnyardgrass; 500 g ai/ha): 90
- Wheat plant response rating (wheat; 125 g ai/ha): 40
- Plant response rating, Wheat (wheat; 500 g ai/ha): 70
- Plant response rating, Ducksalad (Heteranthera limosa): 70
- Blackgrass plant response rating (blackgrass; [5]): 90
- Blackgrass plant response rating (blackgrass; [6]): 95
- Plant response rating, Blackgrass (blackgrass; [7]): 80
- Ryegrass, Italian plant response rating (Italian ryegrass; [5]): 75
- Ryegrass, Italian plant response rating (Italian ryegrass; [6]): 95
- Plant response rating, Ryegrass, Italian (Italian ryegrass; [7]): 35
- Wheat plant response rating (wheat, winter; [5]): 30
- Wheat plant response rating (wheat, winter; [6]): 60
- Plant response rating, Wheat (wheat, winter; [7]): 5
- Galium plant response rating (galium; [5]): 100
- Galium plant response rating (galium; [6]): 100
- Plant response rating, Galium (galium; [7]): 100
- Morningglory plant response rating (morningglory [1]; [5]): 98
- Morningglory plant response rating (morningglory [1]; [6]): 98
- Plant response rating, Morningglory (morningglory [1]; [7]): 98
- Waterhemp plant response rating (waterhemp; [5]): 100
- Waterhemp plant response rating (waterhemp; [6]): 98
- Plant response rating, Waterhemp (waterhemp; [7]): 100
- Morningglory plant response rating (morningglory [2]; [3]): 60
- Plant response rating, Morningglory (morningglory [2]; [8]): 98
- Plant response rating (0 to 100), Morningglory (morningglory [2]; 250 g ai/ha, postemergence): 95
- Plant response rating, Morningglory (morningglory [2]; [9]): 65

Compound: N#Cc1cnn(-c2c(Oc3ncc(Cl)cn3)cccc2C(F)F)c1 [Compound 236]
- Crabgrass, Large plant response rating (0 to 100 scale) (large (Lg) crabgrass): 100
- Crabgrass, Large plant response rating (large (Lg) crabgrass; [4]): 100
- Barnyardgrass plant response rating (barnyardgrass; 125 g ai/ha): 100
- Plant response rating, Barnyardgrass (barnyardgrass; 500 g ai/ha): 100
- Wheat plant response rating (wheat; 125 g ai/ha): 50
- Plant response rating, Wheat (wheat; 500 g ai/ha): 100
- Plant response rating, Ducksalad (Heteranthera limosa): 100
- Blackgrass plant response rating (blackgrass; [10]): 5
- Blackgrass plant response rating (blackgrass; [5]): 90
- Plant response rating, Blackgrass (blackgrass; [7]): 90
- Ryegrass, Italian plant response rating (Italian ryegrass; [10]): 0
- Ryegrass, Italian plant response rating (Italian ryegrass; [5]): 85
- Plant response rating, Ryegrass, Italian (Italian ryegrass; [7]): 45
- Wheat plant response rating (wheat, winter; [10]): 0
- Wheat plant response rating (wheat, winter; [5]): 60
- Plant response rating, Wheat (wheat, winter; [7]): 0
- Galium plant response rating (galium; [10]): 90
- Galium plant response rating (galium; [5]): 100
- Plant response rating, Galium (galium; [7]): 100
- Morningglory plant response rating (morningglory [1]; [10]): 0
- Morningglory plant response rating (morningglory [1]; [5]): 98
- Plant response rating, Morningglory (morningglory [1]; [7]): 55
- Waterhemp plant response rating (waterhemp; [10]): 98
- Waterhemp plant response rating (waterhemp; [5]): 100
- Plant response rating, Waterhemp (waterhemp; [7]): 98
- Plant response rating (0 to 100), Morningglory (morningglory [2]; 16 g ai/ha, postemergence, 0 is no effect, 100 is complete control): 10
- Morningglory plant response rating (morningglory [2]; [3]): 45
- Plant response rating, Morningglory (morningglory [2]; [8]): 75
- Plant response rating, Morningglory (morningglory [2]; [9]): 70
